Results on one compound are retold here after US20240300945A1, “CLY SERIES COMPOUND, PREPARATION METHOD THEREFOR AND USE THEREOF IN PREPARATION OF DRUGS” (NANJING WELLBEST PHARMACEUTICAL CO., LTD, priority 2021, published 2024).

For one data set, the system named is rabbit ear acne model. As to the kind of experiment: Rabbit ear acne model: epidermal thickness, hair follicle area, sebaceous gland diameter. Format: in vivo, New Zealand rabbits. Conditions: rabbit right ear. The source says: New Zealand rabbits were, according to weights, randomly divided into the model control group (applied cream matrix), positive treatment group (applied Differin on the skin), CLY-1 external treatment group (0.25% CLY-1 cream on the skin), CLY-2 external treatment group (0.25% CLY-2 cream on the skin), CLY-3 external treatment group (0.25% CLY-3 cream on the skin), CLY-4 external treatment group (0.25% CLY-4 cream on the skin) CLY-8 external treatment group (0.25% CLY-8 cream on the skin), CLY-9 external treatment group (0.25% CLY-9 cream on the skin), CLY-11 external treatment group (0.25% CLY-11 cream on the skin), CLY-19 external treatment group (0.25% CLY-19 cream on the skin), CLY-36 external treatment group (0.25% CLY-36 cream on the skin); CLY-1 intravenous injection group (1 mg/kg·d), CLY-2 intravenous injection group (1 mg/kg·d), CLY-3 intravenous injection group (1 mg/kg·d), CLY-4 intravenous injection group (1 mg/kg·d), CLY-8 intravenous injection group (1 mg/kg·d), CLY-9 intravenous injection group (1 mg/kg·d), CLY-11 intravenous injection group (1 mg/kg·d), CLY-19 intravenous injection group (1 mg/kg·d), and CLY-36 intravenous injection group (1 mg/kg·d), with 10 in each group. Took the inner side of the rabbit's right ear for depilation treatment as the observation area, and the inner side of the left ear of all rabbits as their own negative control, and applied 95% alcohol. The inner side of the right ear of the model group and the treatment group were both coated with 2% coal tar (Alfa Aesar China, which used 95% alcohol to prepare 2% coal tar solution), and evenly applied the sterile cotton swab to the opening of the ear duct on the inner side of the rabbit's ear within the range of about 2 cm×2 cm, once a day, 0.5 mL each time, and wiped the previous application site with warm water for 14 consecutive days to establish the acne micro-pigmentation model. Visually observed the changes of local skin, including ear thickness, hardness, roughness, and whether there was a black angle plug at the hair follicle mouth. 18 hours after the last application, the sample was sacrificed and skin was taken. The skin tissue was taken from the application site by using a 5 mm punch, fixed with 10% formaldehyde, embedded in paraffin, and stained with HE. The histopathological observation and analysis were carried out.
The histopathological changes were observed under the microscope, and the thickness of five different epidermises on a slice was measured with the Biomias99 image analysis system, and the average value was calculated; Detected the area of the two hair follicles and the diameter of the four sebaceous glands with the same position and the most complete structure in the four sections, calculated their average values, and then subtracted the data of the left and right external auditory canal of the rabbits in each group to obtain the difference in the thickness of the left and right ear epidermis, the difference in the area of the hair follicles and the difference in the diameter of the sebaceous glands.
SPSS16 software was used for statistical analysis. The paired t-test was used for the left and right self-contrast, and the t-test was used for the comparison between the groups, P<0.05 was statistically significant.

The nature of data set [1]: Pharmacokinetic properties of rats (bioavailability). The class given is in vivo. Conditions: rat, po; male SD rats; intravenous 1 mg/kg, intragastric 5 mg/kg; plasma LC/MS/MS. On the procedure: Male SD rats were randomly assigned to each group, 12 rats in each compound group, and then randomly divided into two groups. Six rats were administered intravenously (1 mg/kg), and blood was collected and plasma was separated respectively at 0.0833, 0.25, 0.5, 1, 2, 4, 6, 8, and 24 hours after administration. The other six rats were administered intragastrically (5 mg/kg), and blood was collected and plasma was separated respectively at 0.25, 0.5, 1, 2, 4, 6, 8, and 24 hours after administration. The concentration of each compound in plasma was determined by LC/MS/MS method, and the relevant pharmacokinetic parameters were calculated by using the software Phoenix WinNonlin 6.2.1, the bioavailability in rats was calculated, and the pharmacokinetic properties of each compound were evaluated.

For a further data set, the system named is rat scar model. As to the kind of experiment: Rat scar model (skin wound healing). The class given is in vivo. As to conditions: rat back wound 2.4 cm; 0.5% cream on the skin. From the text:
1.1 Preparation method of treatment cream: The excipient matrix components included methyl silicone oil (15%), stearic acid (6%), white vaseline (5%), liquid paraffin (5%), octadecanol (5%), glycerin (20%), alkylaryl polyglycol ether (1%), fatty alcohol polyoxyethylene ether (1%), […] (1%), ethyl paraben (0.1%), distilled water (about 31-55%), and mixed with appropriate amount of CLY series compounds to form a mixed emulsion. The emulsion matrix used in this embodiment refers to the matrix component after the active ingredient was removed from the emulsion.
1.2 Grouping and modeling of experimental animals: SPF grade male rats, weighing (210±28) g, from the Animal Center of Nanyi University. The rats were numbered according to their body weight and using the random array method, samples were divided into the model control group (applied cream matrix), CLY-1 treatment group (applied 0.5% CLY-1 cream on the skin), CLY-2 treatment group (applied 0.5% CLY-2 cream on the skin), CLY-3 treatment group (0.5% CLY-3 cream on the skin), CLY-4 treatment group (0.5% CLY-4 cream on the skin), CLY-8 treatment group (0.5% CLY-8 cream on the skin), CLY-11 treatment group (0.5% CLY-11 cream on the skin) CLY-19 treatment group (0.5% CLY-19 cream on the skin), CLY-36 treatment group (0.5% CLY-36 cream on the skin), and CLY-39 treatment group (0.5% CLY-39 cream on the skin), 6 in each group. Rats in each group were anesthetized by intraperitoneal injection of 2% pentobarbital sodium (120 mg/kg) and fixed on the operating table, and then chose a piece of 4×5 cm of intact skin on the back, 8% sodium sulfide hair removal, used tissue scissors to cut a wound with a diameter of 2.4 cm and a depth of muscle fascia at the hair removal site, and damage part of the muscle surface fascia. Animals were kept in separate cages to prevent rats from biting and licking. Applied 2% iodine tincture daily to the wound for routine disinfection, and observed the wound healing of rats.
The wounds were routinely disinfected every day, and the wounds of rats were observed on the 1st, 3rd, 5th, 7th, 12th, and 20th days. […] On the 12th day, the wounds in each treatment group had basically recovered, while the model group still had about 0.5 cm2 of wounds. By the 20th day, the wounds in each group had recovered, and the model control group left obvious scars, while each treatment group only left different amounts of pigmentation.

[2] abbreviates: external use (0.25% CLY cream; positive: Differin).
Setting [3] is: intravenous injection 1 mg/kg·d.

Marks after values point to notes of the source that are not given here.

Usually bioavailability stands for dose-corrected exposure relative to a reference, in per cent. A higher bioavailability goes with good availability. Turning to `Nc1ccccc1-c1ccc(C(=O)N(c2ncccc2Cl)[C@@H]2CCCNC2)cc1` [CLY-39], in the data set with rabbit ear acne model (setting [2]), the epidermal thickness was found to be 0.2312 ± 0.0152 mm, the hair follicle area is on record as 0.2315 ± 0.0662* mm^2 and the sebaceous gland diameter was determined as 0.0716 ± 0.0323 mm. In the data set on rabbit ear acne model (setting [3]), the epidermal thickness is recorded as 0.2056 ± 0.0156 mm, the hair follicle area is recorded as 0.2056 ± 0.0762* mm^2 and the sebaceous gland diameter was 0.0531 ± 0.0306 mm. The bioavailability in data set [1] is 65.6%. Also, in the data set with rat scar model, the “skin wound healing and scar formation” value was “significantly promote skin wound healing and reduce scar formation”.
